The values below are quoted from earlier work in PubChem BioAssay AID1259409 (Chemical Carcinogenesis Research Information System (CCRIS), 2018).

Structures are written as SMILES.

For the series, the system named is rodent chemically induced tumor inhibition, incidence and multiplicity. Kind of series: CCRIS tumor inhibitor studies. The following applies: Dose [Inhibitor]: 0, Route [Inhibitor]: ORAL, Species: RAT, Strain/Sex: F344/MALE.

As for `COc1cc(/C=C/C(=O)O[C@H]2CC[C@]34C[C@]35CC[C@]3(C)[C@@H]([C@H](C)CCC=C(C)C)CC[C@@]3(C)[C@@H]5CC[C@H]4C2(C)C)ccc1O`, the “tumour outcome (control, treated, inhibition, significance)” value was 7/14 (50%), 11/13 (85%), -70%, not significant (Carcinogen: 2,2'-DIHYDROXY-DI-N-PROPYLNITROSAMINE, 53609-64-6, N-ETHYL-N-HYDROXYETHYLNITROSAMINE, 13147-25-6, 3,2'-DIMETHYL-4-AMINO-, Carcinogen: 2,2'-DIHYDROXY-DI-N-PROPYLNITROSAMINE, 53609-64-6, N-ETHYL-N-HYDROXYETHYLNITROSAMINE, 13147-25-6, 3,2'-DIMETHYL-4-AMINO-, 1% IN DIET FOR 32 WK BEGINNING 1 WK POST CARCINOGEN TREATMENT (STUDY DURATION: 36 WK), Target Tissue: Type of Lesion: LUNG: ADENOMA, Dose [Carcinogen]: 1000 MG/KG BW DHPN TWICE 1500 MG/KG BW EHEN TWICE, 75 MG/KG BW 3 TIMES ADMINISTERED OVER FIRST 3 WK, Promoter: NONE USED); 3/14 (21%), 2/13 (15%), 29%, not significant (Carcinogen: 2,2'-DIHYDROXY-DI-N-PROPYLNITROSAMINE, 53609-64-6, N-ETHYL-N-HYDROXYETHYLNITROSAMINE, 13147-25-6, 3,2'-DIMETHYL-4-AMINO-, Carcinogen: 2,2'-DIHYDROXY-DI-N-PROPYLNITROSAMINE, 53609-64-6, N-ETHYL-N-HYDROXYETHYLNITROSAMINE, 13147-25-6, 3,2'-DIMETHYL-4-AMINO-, 1% IN DIET FOR 32 WK BEGINNING 1 WK POST CARCINOGEN TREATMENT (STUDY DURATION: 36 WK), Target Tissue: Type of Lesion: THYROID GLAND: ADENOMA, Dose [Carcinogen]: 1000 MG/KG BW DHPN TWICE, 1500 MG/KG BW EHEN TWICE 75 MG/KG BW 3 TIMES ADMINISTERED OVER FIRST 3 WK, Promoter: NONE USED); 3/14 (21%), 1/13 (8%), 62%, not significant (Carcinogen: 2,2'-DIHYDROXY-DI-N-PROPYLNITROSAMINE, 53609-64-6, N-ETHYL-N-HYDROXYETHYLNITROSAMINE, 13147-25-6, 3,2'-DIMETHYL-4-AMINO-, Carcinogen: 2,2'-DIHYDROXY-DI-N-PROPYLNITROSAMINE, 53609-64-6, N-ETHYL-N-HYDROXYETHYLNITROSAMINE, 13147-25-6, 3,2'-DIMETHYL-4-AMINO-, 1% IN DIET FOR 32 WK BEGINNING 1 WK POST CARCINOGEN TREATMENT (STUDY DURATION: 36 WK), Target Tissue: Type of Lesion: THYROID GLAND: CARCINOMA, Dose [Carcinogen]: 1000 MG/KG BW DHPN TWICE, 1500 MG/KG BW EHEN TWICE, 75 MG/KG BW 3 TIMES ADMINISTERED OVER FIRST 3 WK, Promoter: NONE USED); 1/14 (7%), 2/13 (15%), -114%, not significant (Carcinogen: 2,2'-DIHYDROXY-DI-N-PROPYLNITROSAMINE, 53609-64-6, N-ETHYL-N-HYDROXYETHYLNITROSAMINE, 13147-25-6, 3,2'-DIMETHYL-4-AMINO-, Carcinogen: 2,2'-DIHYDROXY-DI-N-PROPYLNITROSAMINE, 53609-64-6, N-ETHYL-N-HYDROXYETHYLNITROSAMINE, 13147-25-6, 3,2'-DIMETHYL-4-AMINO-, 1% IN DIET FOR 32 WK BEGINNING 1 WK POST CARCINOGEN TREATMENT (STUDY DURATION: 36 WK), Target Tissue: Type of Lesion: URINARY BLADDER: CARCINOMA, Dose [Carcinogen]: 1000 MG/KG BW DHPN TWICE, 1500 MG/KG BW EHEN TWICE, 75 MG/KG BW 3 TIMES ADMINISTERED OVER FIRST 3 WK, Promoter: NONE USED); 7/14 (50%), 5/13 (38%), 24%, not significant (Carcinogen: 2,2'-DIHYDROXY-DI-N-PROPYLNITROSAMINE, 53609-64-6, N-ETHYL-N-HYDROXYETHYLNITROSAMINE, 13147-25-6, 3,2'-DIMETHYL-4-AMINO-, Carcinogen: 2,2'-DIHYDROXY-DI-N-PROPYLNITROSAMINE, 53609-64-6, N-ETHYL-N-HYDROXYETHYLNITROSAMINE, 13147-25-6, 3,2'-DIMETHYL-4-AMINO-, 1% IN THE DIET FOR 32 WK BEGINNING 1 WK POST CARCINOGEN TREATMENT (STUDY DURATION: 36 WK), Target Tissue: Type of Lesion: LARGE INTESTINE: ADENOMA, Dose [Carcinogen]: 1000 MG/KG BW DHPN TWICE, 1500 MG/KG BW EHEN TWICE, 75 MG/KG BW 3 TIMES ADMINISTERED OVER FIRST 3 WK, Promoter: NONE USED); 1/14 (7%), 2/13 (15%), -114%, not calculated (Carcinogen: 2,2'-HYDROXY-DI-N-PROPYLNITROSAMINE, 53609-64-6, N-ETHYL-N-HYDROXYETHYL- NITROSAMINE, 13147-25-6, 3,2'-DIMETHYL-4-AM, Carcinogen: 2,2'-HYDROXY-DI-N-PROPYLNITROSAMINE, 53609-64-6, N-ETHYL-N-HYDROXYETHYL- NITROSAMINE, 13147-25-6, 3,2'-DIMETHYL-4-AM, 1% IN DIET BEGINNING 1 WK POST LAST CARCINOGEN DOSE AND CONTINUING FOR 32 WK (STUDY DURATION: 36 WK), Target Tissue: Type of Lesion: URINARY BLADDER: CARCINOMA, Dose [Carcinogen]: 1000 MG/KG IP DHPN 2X, 1500 MG/KG GAV EHEN 2X AND 75 MG/KG SC DMAB 3X GIVEN OVER THE INITIAL 3 WK PERIOD AT 3-4 D INTERV, Promoter: NONE USED). The “tumour outcome (control, treated, inhibition, significance)” value runs as follows: (Carcinogen: 3,2'-DIMETHYL-4-AMINOBIPHENYL, 13394-86-0, 2% IN BASAL DIET BEGINNING POST CARCINOGEN TREATMENT AND CONTINUING FOR 40 WK (STUDY DURATION: 60 WK), Target Tissue: Type of Lesion: PANCREAS: ACINAR CELL NODULE, Dose [Carcinogen]: 50 MG/KG 1/2 WK FOR 20 WK TO RATS MAINTAINED ON ETHINYL ESTRADIOL CONTAINING DIET (0.75 PPM) FOR 1 WK CYCLED WITH ETHINY, Promoter: ETHINYL ESTRADIOL, 57-63-6) 4/10 (40%), 5/13 (38%), 5%, not significant; (Carcinogen: 3,2'-DIMETHYL-4-AMINOBIPHENYL, 13394-86-0, 2% IN BASAL DIET BEGINNING POST CARCINOGEN TREATMENT AND CONTINUING FOR 40 WK (STUDY DURATION: 60 WK), Target Tissue: Type of Lesion: PROSTATE: CARCINOMA, Dose [Carcinogen]: 50 MG/KG 1/2 WK FOR 20 WK TO RATS MAINTAINED ON ETHINYL ESTRADIOL CONTAINING DIET (0.75 PPM) FOR 1 WK CYCLED WITH ETHINY, Promoter: ETHINYL ESTRADIOL, 57-63-6) 5/10 (50%), 5/13 (38%), 24%, not significant. For the same compound, the outcome (Carcinogen: 2,2'-DIHYDROXY-DI-N-PROPYLNITROSAMINE, 53609-64-6, N-ETHYL-N-HYDROXYETHYLNITROSAMINE, 13147-25-6, 3,2'-DIMETHYL-4-AMINO-, Carcinogen: 2,2'-DIHYDROXY-DI-N-PROPYLNITROSAMINE, 53609-64-6, N-ETHYL-N-HYDROXYETHYLNITROSAMINE, 13147-25-6, 3,2'-DIMETHYL-4-AMINO-, 1% IN DIET FOR 32 WK BEGINNING 1 WK POST CARCINOGEN TREATMENT (STUDY DURATION: 36 WK), Target Tissue: Type of Lesion: URINARY BLADDER: PAPILLOMA, Dose [Carcinogen]: 1000 MG/KG BW DHPN TWICE, 1500 MG/KG BW EHEN TWICE, 75 MG/KG BW 3 TIMES ADMINISTERED OVER FIRST 3 WK, Promoter: NONE USED) was 0/14 (0%), 3/13 (23%), -100%, not significant.
